# Source: paper PMC5773577, “Novel Miniature Membrane Active Lipopeptidomimetics against Planktonic and Biofilm Embedded Methicillin-Resistant Staphylococcus aureus” (Scientific Reports, 2018)
# Residues, ends and D or L forms follow the SMILES beside them. No end group written: not given here.
# How the values were obtained:
# [1] = system: mouse red blood cells (RBCs); assay: Hemolysis assay; assay type: cell-based; conditions: mouse RBC, up to 250 μg/mL, 1 h, 37 °C, PBS pH 7.4; 0.1% Triton X-100 = 100%; data not shown
# Protocol: For the experiment, a previously defined procedure was used with slight modifications[67],[68]. Briefly, blood was withdrawn from mice on the day of the experiment. After washing red blood cells (RBC) twice with phosphate buffer saline (PBS: 35 mM sodium phosphate, 150 mM NaCl, pH 7.4), a 4% v/v suspension of RBC was prepared in the same buffer. In a 96-well plate, serial two-fold dilutions of desired concentrations of peptidomimetics (in PBS) were prepared (100 μL) in duplicate. To each well 100 μL of 4% v/v RBC suspension was added. The plates were incubated at 37 °C for 1 h. After 1 h, the plates were centrifuged at 1500 rpm for 10 min and 20 μL of the supernatant was transferred to a fresh 96-well plate containing 80 μL PBS. The hemoglobin release was quantified by measuring OD414 in an ELISA plate reader (Molecular Devices, Sunnyvale, CA, USA). Hemoglobin release from 0.1% Triton X-100 treated RBC was set as 100% lysis (Amax) while as negative control RBC suspended in PBS alone was used (APBS). Percentage hemolysis was calculated using the following equation:1 %hemolysis=[(Asample−APBS)/(Amax−APBS)]×100
# S. aureus (ISP479R) = assay type: cell-based, Staphylococcus aureus; conditions: MHB, 2–5 × 10^5 CFU/mL, 16–18 h, 37 °C, OD600
# Protocol: (§1) The antibacterial activity was evaluated as MIC using slight modifications to a serial broth micro dilution method as reported previously[66],[67]. Briefly, to each treatment well of the 96-well plate (Corning Incorporated, USA) 10 μL of peptidomimetic/antibiotic was added and subsequently diluted serial 2-fold in 0.2% BSA (in 0.01% acetic acid). Then to each well of the first 11 columns 100 μL of mid-log phase bacterial suspension in MHB medium was added to get 2–5 × 10^5 CFU/mL. Cultures without test peptidomimetics/antibiotics were used as growth control. Uninoculated MHB medium was used as negative control. The microtitre plates were incubated overnight with agitation (180 rpm) at 37 °C. After 16–18 h incubation, absorbance was read at 600 nm using an ELISA plate reader (Molecular Devices, Sunnyvale, CA, USA). The experiments were carried out in duplicate on at least three different days.
# S. aureus (ATCC 25923) = assay: microbe, parasite or virus in culture; assay type: cell-based, Staphylococcus aureus; conditions: 2–5 × 10^5 CFU/mL, 16–18 h, 37 °C
# Protocol: as §1
# MRSA (ATCC 33591) = assay: microbe, parasite or virus in culture; assay type: cell-based, Staphylococcus aureus; conditions: MHB, 2–5 × 10^5 CFU/mL, 16–18 h, 37 °C; for Minimum inhibitory concentration, MIC: OD600
# Protocol: as §1
# S. aureus (ATCC 29213) = assay: microbe, parasite or virus in culture; assay type: cell-based, Staphylococcus aureus; conditions: 2–5 × 10^5 CFU/mL, 16–18 h, 37 °C, OD600, duplicate, at least three days
# Protocol: as §1
# S. aureus (ISP479C) = assay: microbe, parasite or virus in culture; assay type: cell-based, Staphylococcus aureus; conditions: MHB, 2–5 × 10^5 CFU/mL, 16–18 h, 37 °C
# Protocol: as §1
# MRSA ATCC 33591 [2] = assay: Cell viability corresponding to calcein leakage experiment; assay type: cell-based, Staphylococcus aureus; conditions: calcein-loaded cells in PBS, 4 × MIC (melittin 10 μM), 2 h incubation
# Protocol: To assess the effect of designed peptidomimetics on membrane integrity of MRSA ATCC 33591 strain a calcein-AM dye release experiment was performed using the protocol described previously with slight modifications[51]. Briefly, exponential phase MRSA ATCC 33591 culture was prepared in MHB medium as mentioned earlier and adjusted to OD600 = 1 (~10^9 CFU/mL) in PBS (10 mM sodium phosphate, 150 mM NaCl, pH 7.4). Thereafter, the cells were incubated at 37 °C with calcein-AM (2 μg/mL) in 10% MHB medium for 2 h. The calcein-loaded cells were washed once and re-suspended in PBS to OD600 = 0.5 (~10^8 CFU/mL). The cells were diluted 100× in PBS to get 3–5 × 10^5 CFU/mL and were incubated with different concentrations of test agents at 37 °C in dark for 2 h. Subsequently, calcein fluorescence was measured via flow cytometry (Becton Dickinson (BD) FACS verse, San Jose, CA) with excitation and emission wavelengths of 488 nm and 530 ± 30 nm, respectively. For each sample, 10,000 cells were acquired. As a positive control, melittin (10 μM) was assayed under identical conditions. The experiment was repeated on two different days and mean ± S.D. is presented here. […]
# agar plates. The plates were incubated at 37 °C for 16-18 h and colonies were counted. […]
# MRSA ATCC 33591 [3] = assay: Membrane permeabilization assay, calcein-AM dye release, flow cytometry; assay type: cell-based, Staphylococcus aureus; conditions: PBS, 37 °C, mean ± S.D., two days
# Protocol: To assess the effect of designed peptidomimetics on membrane integrity of MRSA ATCC 33591 strain a calcein-AM dye release experiment was performed using the protocol described previously with slight modifications. Briefly, exponential phase MRSA ATCC 33591 culture was prepared in MHB medium as mentioned earlier and adjusted to OD600 = 1 (~10^9 CFU/mL) in PBS (10 mM sodium phosphate, 150 mM NaCl, pH 7.4). Thereafter, the cells were incubated at 37 °C with calcein-AM (2 μg/mL) in 10% MHB medium for 2 h. The calcein-loaded cells were washed once and re-suspended in PBS to OD600 = 0.5 (~10^8 CFU/mL). […] Subsequently, calcein fluorescence was measured via flow cytometry (Becton Dickinson (BD) FACS verse, San Jose, CA) with excitation and emission wavelengths of 488 nm and 530 ± 30 nm, respectively. For each sample, 10,000 cells were acquired. As a positive control, melittin (10 μM) was assayed under identical conditions. The experiment was repeated on two different days and mean ± S.D. is presented here. Corresponding to leakage a viability assay at 4 × MIC of respective test agents was also performed by incubating samples for 2 h at 37 °C and plating the diluted aliquots on BHI agar plates.
# MRSA ATCC 33591 [4] = assay: Membrane depolarization assay, DiSC3(5); assay type: cell-based, Staphylococcus aureus; conditions: 2 min, DiSC3(5), HEPES-glucose buffer pH 7.2, 37 °C, mean ± S.D., two days
# Protocol: The cytoplasmic membrane depolarization in MRSA ATCC 33591 strain was measured using membrane potential sensitive dye 3,3′-dipropylthiacarbocyanine iodide (DiSC3(5)) with a protocol described previously with slight modifications[23],[48]. Briefly, exponential phase cells grown in MHB were harvested by centrifugation, washed and re-suspended in respiration buffer (5 mM HEPES, 20 mM glucose, pH 7.2) to 2.5 × 10^6 CFU/mL. The cells were divided into 1 mL aliquots and incubated with 3.6 μM of DiSC3(5) (in dark) for 30 min to get steady baseline fluorescence intensity. The dye-loaded cells (800 μL) were then treated with peptidomimetics at respective 1× and 4× MIC concentrations (2–20 μL) and consequent fluorescence increase after 2 min of addition was measured in a Shimadzu RF-5301 PC spectrofluorimeter. As controls IL, melittin and VAN were also assayed under identical conditions. The samples were excited at 622 nm and emission was recorded between 650–700 nm with 3 nm slit width for both excitation and emission. The temperature was maintained at 37 °C throughout the experiment. Depolarization kinetics was measured at 4 × MIC of test agents for 5 min. The experiment was repeated on two different days and for Fig. 3 panel (A) mean ± S.D. data for % depolarization relative to melittin control (10 μM) set as 100% is presented here. For panel (B) representative data is shown here. The viability of dye-loaded cells corresponding to depolarization experiment at 4 × MIC concentration was also measured by plating the diluted aliquots onto BHI agar plates.
# [5] = system: E. faecium (E-7846), clinical isolate of vancomycin-resistant E. faecium; assay: organism not typed; assay type: cell-based, Enterococcus faecium; conditions: read-out: Minimum inhibitory concentration, MIC
# Protocol: as §1
# [6] = system: E. faecium (E-447), clinical isolate of vancomycin-resistant E. faecium; assay: organism not typed; assay type: cell-based, Enterococcus faecium; conditions: read-out: Minimum inhibitory concentration, MIC
# Protocol: as §1
# [7] = system: Methicillin-resistant S. epidermidis (ATCC 35984); assay: microbe, parasite or virus in culture; assay type: cell-based, Staphylococcus epidermidis; conditions: Staphylococcus epidermidis, ATCC 35984 / MRSE; MRSE ATCC 35984; MHB, 2–5 × 10^5 CFU/mL, 16–18 h, 37 °C, OD600; read-out: Minimum inhibitory concentration, MIC
# Protocol: as §1
# [8] = system: Vancomycin-resistant E. faecium (ATCC 700221); assay: microbe, parasite or virus in culture; assay type: cell-based; conditions: Enterococcus faecium, ATCC700221, MHB, 2–5 × 10^5 CFU/mL, 16–18 h, 37 °C, read-out: Minimum inhibitory concentration, MIC
# Protocol: as §1
# E. faecalis (ATCC 29212) = assay: microbe, parasite or virus in culture; assay type: cell-based; conditions: Enterococcus faecalis, ATCC29212, MHB, 2–5 × 10^5 CFU/mL, 16–18 h, 37 °C, read-out: Minimum inhibitory concentration, MIC
# Protocol: as §1
# MRSA (ATCC 43300) = assay: microbe, parasite or virus in culture; assay type: cell-based, Staphylococcus aureus; conditions: Staphylococcus aureus, MHB, 2–5 × 10^5 CFU/mL, 16–18 h, 37 °C, OD600, read-out: Minimum inhibitory concentration, MIC
# Protocol: as §1
# [9] = Staphylococcus aureus, OD600, read-out: Minimum inhibitory concentration, MIC
compound,measurement,setting,value
"N=C(N)NCCC[C@H](NC(=O)C(Cc1c(F)c(F)c(F)c(F)c1F)NC(=O)[C@H](CCCNC(=N)N)NC(=O)[C@@H](N)Cc1c[nH]c2ccccc12)C(=O)N[C@@H](Cc1c[nH]c2ccccc12)C(N)=O (stereo partly drawn) [S-4, Trp-Arg-(F5-Phe propionic acid)-Arg-Trp-CONH2] (HELM PEPTIDE1{W.R.[O=C(C(Cc1c(F)c(F)c(F)c(F)c1F)N[*:1])[*:2]].R.W.[am]}$$$$V2.0)",% hemolysis,[1],< 5%
same,"Minimum inhibitory concentration, MIC",S. aureus (ISP479R),45.4 µg/mL
same,"Minimum inhibitory concentration, MIC","S. aureus (ATCC 25923); MHB, OD600",45.4 µg/mL
same,"Minimum inhibitory concentration, MIC",MRSA (ATCC 33591),45.4 µg/mL
same,"Minimum inhibitory concentration, MIC",S. aureus (ATCC 29213); MHB,45.4 µg/mL
same,"Minimum inhibitory concentration, MIC",S. aureus (ISP479C); OD600,45.4 µg/mL
"indolicidin (ILPWKWPWWPWRR; ends and bridges not checked; UniProt P33046 131-143, looked up) [naturally occurring Trp-Arg rich CAMP used as control]",log reduction in viability,MRSA ATCC 33591 [2],1.8 log
same,% calcein leakage,"MRSA ATCC 33591 [3]; at 4 × MIC, 2 min incubation",42.2 ± 27.9%
same,% calcein leakage,"MRSA ATCC 33591 [3]; at 4 × MIC, 2 h incubation",50.6 ± 23.6%
same,% calcein leakage,"MRSA ATCC 33591 [3]; at MIC, 2 min incubation",6.2 ± 8.8%
same,% calcein leakage,"MRSA ATCC 33591 [3]; at MIC, 2 h incubation",2.7 ± 3.9%
same,"% depolarization relative to melittin control (10 μM, set as 100%)",MRSA ATCC 33591 [4]; at 4 × MIC,87.4 ± 5.5%
same,"% depolarization relative to melittin control (10 μM, set as 100%)",MRSA ATCC 33591 [4]; at MIC,48.3 ± 6.3%
same,"Minimum inhibitory concentration, MIC",MRSA (ATCC 33591),3.2 µg/mL
"Cc1onc(-c2ccccc2)c1C(=O)N[C@@H]1C(=O)N2[C@@H]1SC(C)(C)[C@@H]2C(=O)O [OXA, oxacillin]",MIC,[5],> 233 µg/mL
same,MIC,[6],> 233 µg/mL
same,MIC,[7],> 45.4 µg/mL
same,MIC,[8],> 45.4 µg/mL
same,MIC,E. faecalis (ATCC 29212),5.6 µg/mL
same,MIC,"S. aureus (ATCC 25923); Staphylococcus aureus, ATCC25923, MHB, OD600, read-out: Minimum inhibitory concentration, MIC",< 0.3 µg/mL
same,MIC,MRSA (ATCC 33591); [9],56.8 µg/mL
same,MIC,MRSA (ATCC 43300),56.8 µg/mL
same,MIC,"S. aureus (ATCC 29213); Staphylococcus aureus, ATCC29213, MHB, read-out: Minimum inhibitory concentration, MIC",< 0.3 µg/mL
same,MIC,S. aureus (ISP479C); [9],0.3 µg/mL
